Like-named read-outs stand apart in the source and are kept apart here.
Legend:
HT-29 cells [1] = test: Cell cycle analysis (PI, flow cytometry); assay type: cell-based, human; conditions: 250 nM for 24 h (figure legend)
Method: HT29 cells were treated with the indicated compounds for 24 h and then harvested and fixed in 70% ice-cold ethanol for 24 h. The cells were next treated with a 0.1% v/v solution of Triton X-100 in phosphate buffered saline (PBS) containing 10 μg/mL RNAse A and 20 μg/mL PI. The cells were incubated at room temperature for 30 min and then analyzed on a BD FACS Celesta^TM Flow Cytometer (BD Bioscience, Franklin Lakes, NJ, USA) in the FL3 channel. DNA histograms were analyzed using FlowJo_v10.7.1 software (BD Bioscience, Franklin Lakes, NJ, USA).

HT-29 cells [2] = test: Annexin V-PI flow cytometric analysis of apoptosis, HT-29; assay type: cell-based, human; conditions: 96 h
Method: The quantification of apoptosis induced by the test compounds was carried out with flow cytometric analysis using the Annexin-V Fluos kit (Roche Diagnostics, Milan, Italy) following the manufacturer’s instructions. Cancer cells treated with the test compounds for the indicated time points and concentrations were then labeled with annexin V/FITC and PI and analyzed with BD FACS Celesta^TM Flow Cytometer (BD Bioscience, Franklin Lakes, NJ, USA) using the FL1 and FL3 channel, respectively, and FlowJo_v10.7.1 software.

MCF-7 cells = test: In vitro growth inhibition (resazurin, 72 h), MCF-7; assay type: cell-based; conditions: Homo sapiens, MCF7, mean ± SE
MDA-MB-231 cells = test: In vitro growth inhibition (resazurin, 72 h), MDA-MB-231; assay type: cell-based; conditions: Homo sapiens, mean ± SE
HeLa cells = test: In vitro growth inhibition (resazurin, 72 h), HeLa; assay type: cell-based; conditions: Homo sapiens, concentration inhibiting tumor cell proliferation by 50%, mean ± SE
[3] = tested on: panel of five human cancer cell lines (HeLa, MDA-MB-231, A549, HT-29, MCF-7); test: In vitro growth inhibition, range over the panel of five cancer cell lines; conditions: for GI50: read-out: antiproliferative GI50 values, range over the five tumor lines
Method: All the cell lines were purchased from the American Type Culture Collection (ATCC, Manassas, VA, USA). Drug stock solutions were prepared for each compound by dissolving them in DMSO at 10 mM.
Cancer cells were seeded in tissue treated, flat bottom, 384-well plates (Corning, Corning, NY, USA) according to their optimal density, in 27 μL of complete medium per well, using a Microlab STAR 96-CORE liquid handling system (Hamilton Bonaduz, Bonaduz, Switzerland) as described previously [75]. Each compound was tested in a 6-points 2-fold dose–response curve, and each dose was tested in duplicate within each plate, in three independent experiments. The final concentration of DMSO in the wells never exceeded 0.1%, which was the maximum concentration.
Only plates with acceptable Z-prime quality metrics (Z′ > 0.6) were further analyzed for the drug screening. Raw data were normalized according to the following equation: cell viability (%) = (x − POS)/(NEG − POS) × 100, where x is the relative fluorescence units (RFU) collected from each single well, NEG is the mean of intraplate negative controls (DMSO, corresponding to 100% cell viability), and POS is the mean of intraplate positive controls (Bortezomib 1 μΜ, equal to 0% cell viability).

HT-29 cells [4] = test: In vitro growth inhibition (resazurin, 72 h), HT-29; assay type: cell-based; conditions: Homo sapiens, mean ± SE
A549 cells = test: In vitro growth inhibition (resazurin, 72 h), A549; assay type: cell-based; conditions: Homo sapiens, mean ± SE
[5] = tested on: acetylated histone H3 (Ac-H3K9) in HT-29 cells; test: Western blot of acetylated histone H3 (Ac-H3K9) in HT-29 cells; assay type: cell-based, human; conditions: 10 µM, 6 h
Method: HT-29 cells were treated with selected compounds for 6 h at 10 µM, lysed, and then processed as previously described.
Antibodies directed against total histone H3 and its acetylated form (Ac-H3K9) were purchased from Cell Signaling Technology, Danvers, Massachusetts, while anti-vinculin antibody was purchased from Santa Cruz Biotechnology. Membranes were visualized using ECL select (GE Healthcare), and images were acquired using the iBright FL1500 Imaging System (Thermo Fisher Scientific, Waltham, MA, USA). Anti-vinculin (1:25,000, Santa Cruz Biotechnology, Dallas, TX, USA) was used as loading controls.

bovine brain tubulin = test: Inhibition of tubulin polymerization (turbidimetric); assay type: biochemical; conditions: tubulin at 10 μM; 20 min incubation at 30 °C; read-out: Tubulin Assembly IC50 ± SD
Method: (§1) Bovine brain tubulin was purified as described previously. To evaluate the effects of the compounds on tubulin assembly in vitro [77], varying concentrations were preincubated with 10 μM tubulin in 0.8 M monosodium glutamate (pH 6.6) at 30 °C, and the reaction mixtures were then cooled to 0 °C. After addition of GTP, the mixtures were transferred to 0 °C cuvettes in Beckman Coulter (Brea, CA, USA) DU-7400/DU-7500 recording spectrophotometers equipped with electronic temperature controllers and were warmed to 30 °C, and the assembly of tubulin was observed turbidimetrically. […] Inhibition of colchicine binding to tubulin was measured as described before, except that the reaction mixtures contained 0.5 μM tubulin and 5 μM each of [^3H]colchicine and test compound. Only one DEAE-cellulose filter was used per sample, and filtration was via gravity.

human recombinant HDAC1 = molecular target: T1, human recombinant HDAC1 (Homo sapiens, UniProt Q13547); test: HDAC isoform inhibition, fluorogenic substrate, HDAC1; assay type: biochemical; conditions: mean ± SE, read-out: IC50 (µM) hHDAC1
T1 construct: purchased BPS Bioscience 50051
Method: (§2) Further experiments were also carried out to evaluate the inhibitory activities of test compounds on selected HDAC isoforms. […] Following an incubation of 15 min at RT, fluorescence was measured in an EnSight multimodal plate reader (PerkinElmer, Boston, MA, USA) with an excitation wavelength of 360 nm and an emission wavelength of 450 nm.

human recombinant HDAC10 = molecular target: T2, human recombinant HDAC10 (Homo sapiens, UniProt Q969S8); test: HDAC isoform inhibition, fluorogenic substrate, HDAC10; assay type: biochemical; conditions: mean ± SE, read-out: IC50 (µM) hHDAC10
T2 construct: purchased BPS Bioscience 50060
T2 sequence (Q969S8 1-669): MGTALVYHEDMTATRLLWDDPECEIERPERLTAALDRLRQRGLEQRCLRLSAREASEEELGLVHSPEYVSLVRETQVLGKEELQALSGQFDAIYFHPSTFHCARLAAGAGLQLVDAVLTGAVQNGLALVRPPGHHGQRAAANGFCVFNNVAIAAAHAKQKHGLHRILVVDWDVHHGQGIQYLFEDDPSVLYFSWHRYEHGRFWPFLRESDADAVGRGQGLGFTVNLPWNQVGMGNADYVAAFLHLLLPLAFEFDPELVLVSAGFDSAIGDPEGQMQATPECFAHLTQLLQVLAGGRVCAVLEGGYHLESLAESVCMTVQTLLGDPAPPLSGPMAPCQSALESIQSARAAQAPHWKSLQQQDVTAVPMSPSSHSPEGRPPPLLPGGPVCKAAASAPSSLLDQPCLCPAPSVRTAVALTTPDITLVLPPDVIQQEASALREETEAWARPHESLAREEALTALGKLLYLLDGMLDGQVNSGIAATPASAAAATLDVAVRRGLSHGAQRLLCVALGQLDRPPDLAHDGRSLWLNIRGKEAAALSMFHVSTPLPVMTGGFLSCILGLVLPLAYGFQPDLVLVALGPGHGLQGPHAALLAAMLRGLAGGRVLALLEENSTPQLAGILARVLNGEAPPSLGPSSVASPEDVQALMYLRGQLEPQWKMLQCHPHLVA
Method: as §2

human recombinant HDAC8 = molecular target: T3, human recombinant HDAC8 (Homo sapiens, UniProt Q9BY41); test: HDAC isoform inhibition, fluorogenic substrate, HDAC8; assay type: biochemical; conditions: mean ± SE, read-out: IC50 (µM) hHDAC8
T3 construct: purchased BPS Bioscience 50008
T3 sequence (Q9BY41 1-377): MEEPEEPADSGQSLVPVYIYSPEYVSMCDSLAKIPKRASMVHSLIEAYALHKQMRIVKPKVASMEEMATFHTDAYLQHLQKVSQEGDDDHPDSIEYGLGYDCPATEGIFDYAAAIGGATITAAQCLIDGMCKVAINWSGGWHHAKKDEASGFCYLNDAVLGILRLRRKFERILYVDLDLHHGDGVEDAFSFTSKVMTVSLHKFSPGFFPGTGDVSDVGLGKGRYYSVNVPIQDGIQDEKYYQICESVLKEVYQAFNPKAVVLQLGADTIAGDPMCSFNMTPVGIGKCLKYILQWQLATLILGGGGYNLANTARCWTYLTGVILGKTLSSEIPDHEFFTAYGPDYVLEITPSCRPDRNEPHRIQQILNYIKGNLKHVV
Method: as §2

human recombinant HDAC6 = molecular target: T4, human recombinant HDAC6 (Homo sapiens, UniProt Q9UBN7); test: HDAC isoform inhibition, fluorogenic substrate, HDAC6; assay type: biochemical; conditions: mean ± SE, read-out: IC50 (µM) hHDAC6
T4 construct: purchased BPS Bioscience 50056
T4 sequence (Q9UBN7 1-1215): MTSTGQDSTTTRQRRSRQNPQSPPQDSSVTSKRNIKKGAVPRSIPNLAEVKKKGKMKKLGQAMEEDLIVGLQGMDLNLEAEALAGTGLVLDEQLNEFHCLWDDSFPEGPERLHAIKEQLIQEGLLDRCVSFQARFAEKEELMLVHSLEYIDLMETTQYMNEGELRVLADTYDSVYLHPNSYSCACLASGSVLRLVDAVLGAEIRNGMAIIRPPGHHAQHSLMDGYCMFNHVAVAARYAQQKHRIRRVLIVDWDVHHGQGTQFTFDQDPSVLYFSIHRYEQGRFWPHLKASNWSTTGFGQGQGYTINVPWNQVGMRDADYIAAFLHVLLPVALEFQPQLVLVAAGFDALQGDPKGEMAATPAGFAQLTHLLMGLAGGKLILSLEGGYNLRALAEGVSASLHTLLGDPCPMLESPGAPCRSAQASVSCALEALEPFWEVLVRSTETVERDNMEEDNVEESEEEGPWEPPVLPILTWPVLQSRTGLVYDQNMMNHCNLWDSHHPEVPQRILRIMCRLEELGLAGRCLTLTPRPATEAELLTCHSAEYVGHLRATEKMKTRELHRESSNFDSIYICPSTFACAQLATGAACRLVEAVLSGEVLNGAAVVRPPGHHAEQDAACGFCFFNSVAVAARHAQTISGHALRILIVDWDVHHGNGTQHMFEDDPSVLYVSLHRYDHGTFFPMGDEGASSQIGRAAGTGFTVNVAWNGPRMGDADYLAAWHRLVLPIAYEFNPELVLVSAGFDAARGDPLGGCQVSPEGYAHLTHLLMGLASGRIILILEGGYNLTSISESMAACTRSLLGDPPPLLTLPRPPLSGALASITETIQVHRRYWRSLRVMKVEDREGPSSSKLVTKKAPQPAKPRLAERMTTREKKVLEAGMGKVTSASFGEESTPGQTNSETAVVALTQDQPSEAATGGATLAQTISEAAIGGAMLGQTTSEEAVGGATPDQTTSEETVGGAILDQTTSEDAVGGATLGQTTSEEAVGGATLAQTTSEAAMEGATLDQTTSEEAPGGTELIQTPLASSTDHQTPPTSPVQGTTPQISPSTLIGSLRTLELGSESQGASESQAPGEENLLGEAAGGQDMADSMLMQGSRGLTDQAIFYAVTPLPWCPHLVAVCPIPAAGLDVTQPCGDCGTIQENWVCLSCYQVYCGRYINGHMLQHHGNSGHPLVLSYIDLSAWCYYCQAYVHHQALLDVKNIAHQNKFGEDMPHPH
Method: as §2

[6] = tested on: tubulin (colchicine site); test: Inhibition of [3H]colchicine binding to tubulin; design: species or system bovine; conditions: tubulin 0.5 µM, [3H]colchicine 5 µM, tested compound 5 µM
Method: as §1

[7] = read-out: IC50 values, range or bound over the cancer cell line panel
[8] = read-out: IC50 values, range over the cancer cell line panel

T1 sequence (Q13547 whole entry, canonical isoform): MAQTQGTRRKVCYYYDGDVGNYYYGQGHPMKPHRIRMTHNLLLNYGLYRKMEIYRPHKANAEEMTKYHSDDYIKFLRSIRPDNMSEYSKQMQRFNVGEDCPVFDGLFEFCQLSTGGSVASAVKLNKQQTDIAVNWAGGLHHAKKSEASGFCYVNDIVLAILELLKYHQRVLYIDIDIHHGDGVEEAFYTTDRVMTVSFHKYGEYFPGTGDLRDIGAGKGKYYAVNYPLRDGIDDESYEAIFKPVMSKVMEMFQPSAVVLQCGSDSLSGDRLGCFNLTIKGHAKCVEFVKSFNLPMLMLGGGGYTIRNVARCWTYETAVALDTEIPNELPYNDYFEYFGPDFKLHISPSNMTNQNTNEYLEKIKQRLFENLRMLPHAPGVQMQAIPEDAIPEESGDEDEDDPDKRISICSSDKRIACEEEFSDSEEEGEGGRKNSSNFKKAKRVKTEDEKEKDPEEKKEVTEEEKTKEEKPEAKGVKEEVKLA

IC50 (MCF-7 cells)	IC50 (MDA-MB-231 cells)	IC50 (HeLa cells)	melting point	IC50 [3, 7]	IC50 (HT-29 cells [4])	IC50 (A549 cells)	IC50 (bovine brain tubulin)	IC50 (human recombinant HDAC1)	IC50 (human recombinant HDAC10)	IC50 (human recombinant HDAC8)	IC50 (human recombinant HDAC6)	Colchicine Binding % Inhibition ± SD [6]	SMILES	Percentage of HT-29 cells in G1 phase (HT-29 cells [1])	Percentage of HT-29 cells in G2/M phase (HT-29 cells [1])	Percentage of HT-29 cells in S phase (HT-29 cells [1])	induction of apoptosis / cell death (annexin V/PI), in words (HT-29 cells [2])	acetylated histone H3 (Ac-H3K9) level, Western blot [5]	IC50 [3, 8]	GI50 [3]
19 ± 1 nM	26.9 ± 1.74 nM	4 ± 0.01 nM	170 to 172 °C		29 ± 0.01 nM	43.9 ± 0.55 nM	0.42 ± 0.07 µM	> 30 µM	> 30 µM	> 30 µM	12.5 ± 0.8 µM	81 ± 4%	COc1cc(OC)cc(C(=O)c2oc3cc(OC)c(/C=C/C(=O)NO)cc3c2C)c1 [Compound 6c, (E)-3-(2-(3,5-Dimethoxybenzoyl)-6-methoxy-3-methylbenzofuran-5-yl)-N-hydroxyacrylamide]							0.004 to 0.044 µM
33 ± 6 nM	44.7 ± 3.12 nM	6 ± 0.05 nM	100 to 102 °C		7.9 ± 0.02 nM	54.2 ± 2.03 nM	1.1 ± 0.1 µM	13.4 ± 0.9 µM	> 30 µM	> 30 µM	17.1 ± 1.2 µM	86 ± 1%	COc1cccc(C(=O)c2oc3cc(OC)c(/C=C/C(=O)NO)cc3c2C)c1 [Compound 6e, (E)-N-Hydroxy-3-(6-methoxy-2-(3-methoxybenzoyl)-3-methylbenzofuran-5-yl)acrylamide]							

The next lines start with the compound.

SMILES	IC50 (MCF-7 cells)	IC50 (MDA-MB-231 cells)	IC50 (HeLa cells)	melting point	IC50 [3, 7]	IC50 (HT-29 cells [4])	IC50 (A549 cells)	IC50 (bovine brain tubulin)	IC50 (human recombinant HDAC1)	IC50 (human recombinant HDAC10)	IC50 (human recombinant HDAC8)	IC50 (human recombinant HDAC6)	Colchicine Binding % Inhibition ± SD [6]	Percentage of HT-29 cells in G1 phase (HT-29 cells [1])	Percentage of HT-29 cells in G2/M phase (HT-29 cells [1])	Percentage of HT-29 cells in S phase (HT-29 cells [1])	induction of apoptosis / cell death (annexin V/PI), in words (HT-29 cells [2])	acetylated histone H3 (Ac-H3K9) level, Western blot [5]	IC50 [3, 8]	GI50 [3]
CC(/C=C/C(=O)NO)=C\[C@@H](C)C(=O)c1ccc(N(C)C)cc1 [TSA, Trichostatin, reference compound]														43.90%	38.65%	17.44%	sensitive only to the higher dose			
COc1cc(C(=O)c2oc3ccc(/C=C/C(=O)NO)cc3c2C)cc(OC)c1OC [Compound 6h, (E)-N-Hydroxy-3-(3-methyl-2-(3,4,5-trimethoxybenzoyl)benzofuran-5-yl)acrylamide]	> 10000 nM	> 10000 nM	> 10000 nM	188 to 190 °C	> 10 µM	> 10000 nM	> 10000 nM													
COc1ccc2c(C)c(C(=O)c3cc(OC)c(OC)c(OC)c3)oc2c1 [TR187, 2-(3′,4′,5′-trimethoxybenzoyl)-3-methyl-6-methoxy benzofuran, reference compound]	72 ± 4 nM	3.1 ± 0.01 nM	8.5 ± 0.11 nM			35.2 ± 0.82 nM	24 ± 0.44 nM	0.62 µM										does not show any inhibitory activity towards HDAC even at the cellular level	0.003 to 0.072 µM	
COc1cc(C(=O)c2oc3ccc(C#CC(=O)NO)cc3c2C)cc(OC)c1OC [Compound 11h, 3-[3-Methyl-2-(3,4,5-trimethoxybenzoyl)benzofuran-5-yl]prop-2-yne hydroxamic acid]	> 10000 nM	> 10000 nM	> 10000 nM	254 to 256 °C	> 10 µM	> 10000 nM	> 10000 nM													
COc1cc2oc(C(=O)c3cc(OC)c(OC)c(OC)c3)c(C)c2cc1/C=C/C(=O)NO [Compound 6a, (E)-N-Hydroxy-3-(6-methoxy-3-methyl-2-(3,4,5-trimethoxybenzoyl)benzofuran-5-yl)acrylamide]	7 ± 0.2 nM	5 ± 0.04 nM	5.2 ± 0.03 nM			7.5 ± 0.11 nM	23.5 ± 0.24 nM				> 30 µM								0.005 to 0.023 µM	0.005 to 0.023 µM
